Laboratory results reported in the supplement of paper PMC10307832.

Columns and labels:
Experiment in all cases: relative viability (nuclei count vs DMSO), 5 days (fraction); higher = more cells survive
EMC-BAC-2 = test system: EMC-BAC-2
In short: (§1)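 Relative viability was taken as the ratio of nuclei in treated wells to nuclei in vehicle wells. Lung cancer cell lines in 1536-well plates received compounds by pin tool one day after seeding, either one drug alone or a fixed anchor-drug dose plus five library-drug doses (not always all listed) in √10 steps. Nuclei were counted on 4× images after 5 days of treatment, and values are medians of duplicate plates.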

EPLC-272H = test system: EPLC-272H
In short: as §1

HCC-78 = test system: HCC-78
In short: as §1

HCC-827 = test system: HCC-827
In short: as §1

LCLC-103H = test system: LCLC-103H
In short: as §1

LK-2 = test system: LK-2
In short: as §1

LOU-NH91 = test system: LOU-NH91
In short: as §1

LU99A = test system: LU99A
In short: as §1

LXF-289 = test system: LXF-289
In short: as §1

NCI-H1563 = test system: NCI-H1563
In short: as §1

NCI-H1666 = test system: NCI-H1666
In short: as §1

NCI-H1975 = test system: NCI-H1975
In short: as §1

NCI-H2085 = test system: NCI-H2085
In short: as §1

NCI-H2126 = test system: NCI-H2126
In short: as §1

NCI-H23 = test system: NCI-H23
In short: as §1

NCI-H2405 = test system: NCI-H2405
In short: as §1

NCI-H3122 = test system: NCI-H3122
In short: as §1

NCI-H322M = test system: NCI-H322M
In short: as §1

RERF-LC-KJ = test system: RERF-LC-KJ
In short: as §1

SK-LU-1 = test system: SK-LU-1
In short: as §1

SW 1573 = test system: SW 1573
In short: as §1

SMILES: CC1(C)CCC(c2ccc(Cl)cc2)=C(CN2CCN(c3ccc(C(=O)NS(=O)(=O)c4ccc(N[C@H](CCN5CCOCC5)CSc5ccccc5)c(S(=O)(=O)C(F)(F)F)c4)cc3)CC2)C1 [Navitoclax] + Cc1nc(NC(=O)N2CCC[C@H]2C(N)=O)sc1-c1ccnc(C(C)(C)C(F)(F)F)c1 [Alpelisib] (partner 2 µM)
- relative viability (EMC-BAC-2; first compound 0.005 µM): 0.733
- relative viability (EMC-BAC-2; first compound 0.01581 µM): 0.764
- relative viability (EMC-BAC-2; first compound 0.05 µM): 0.745
- relative viability (EMC-BAC-2; first compound 0.1581 µM): 0.69
- relative viability (EMC-BAC-2; first compound 0.5 µM): 0.759
- relative viability (EPLC-272H; first compound 0.005 µM): 0.877
- relative viability (EPLC-272H; first compound 0.1581 µM): 0.933
- relative viability (EPLC-272H; first compound 0.5 µM): 0.821
- relative viability (HCC-78; first compound 0.005 µM): 0.309
- relative viability (HCC-78; first compound 0.01581 µM): 0.352
- relative viability (HCC-78; first compound 0.1581 µM): 0.341
- relative viability (HCC-78; first compound 0.5 µM): 0.339
- relative viability (HCC-827; first compound 0.005 µM): 1.07
- relative viability (HCC-827; first compound 0.01581 µM): 1.1
- relative viability (HCC-827; first compound 0.05 µM): 0.766
- relative viability (HCC-827; first compound 0.1581 µM): 1.02
- relative viability (HCC-827; first compound 0.5 µM): 1.01
- relative viability (LCLC-103H; first compound 0.005 µM): 0.948
- relative viability (LCLC-103H; first compound 0.01581 µM): 1.13
- relative viability (LCLC-103H; first compound 0.05 µM): 0.97
- relative viability (LCLC-103H; first compound 0.1581 µM): 0.919
- relative viability (LCLC-103H; first compound 0.5 µM): 0.963
- relative viability (LK-2; first compound 0.005 µM): 0.919
- relative viability (LK-2; first compound 0.01581 µM): 1.29
- relative viability (LK-2; first compound 0.05 µM): 1.12
- relative viability (LK-2; first compound 0.1581 µM): 0.997
- relative viability (LK-2; first compound 0.5 µM): 1.08
- relative viability (LOU-NH91; first compound 0.005 µM): 0.729
- relative viability (LOU-NH91; first compound 0.01581 µM): 0.809
- relative viability (LOU-NH91; first compound 0.05 µM): 0.69
- relative viability (LOU-NH91; first compound 0.1581 µM): 0.769
- relative viability (LOU-NH91; first compound 0.5 µM): 0.645
- relative viability (LU99A; first compound 0.005 µM): 0.5
- relative viability (LU99A; first compound 0.01581 µM): 0.573
- relative viability (LU99A; first compound 0.05 µM): 0.406
- relative viability (LU99A; first compound 0.1581 µM): 0.526
- relative viability (LU99A; first compound 0.5 µM): 0.473
- relative viability (LXF-289; first compound 0.005 µM): 1.02
- relative viability (LXF-289; first compound 0.01581 µM): 1.03
- relative viability (LXF-289; first compound 0.05 µM): 0.921
- relative viability (LXF-289; first compound 0.1581 µM): 1.02
- relative viability (LXF-289; first compound 0.5 µM): 1.08
- relative viability (NCI-H1563; first compound 0.005 µM): 0.947
- relative viability (NCI-H1563; first compound 0.01581 µM): 1.03
- relative viability (NCI-H1563; first compound 0.05 µM): 0.989
- relative viability (NCI-H1563; first compound 0.1581 µM): 0.981
- relative viability (NCI-H1563; first compound 0.5 µM): 1.13
- relative viability (NCI-H1666; first compound 0.005 µM): 1.03
- relative viability (NCI-H1666; first compound 0.01581 µM): 0.944
- relative viability (NCI-H1666; first compound 0.05 µM): 1.06
- relative viability (NCI-H1666; first compound 0.1581 µM): 0.878
- relative viability (NCI-H1666; first compound 0.5 µM): 0.958
- relative viability (NCI-H1975; first compound 0.005 µM): 0.639
- relative viability (NCI-H1975; first compound 0.01581 µM): 0.732
- relative viability (NCI-H1975; first compound 0.05 µM): 0.752
- relative viability (NCI-H1975; first compound 0.1581 µM): 0.653
- relative viability (NCI-H1975; first compound 0.5 µM): 0.578
- relative viability (NCI-H2085; first compound 0.005 µM): 0.944
- relative viability (NCI-H2085; first compound 0.01581 µM): 0.996
- relative viability (NCI-H2085; first compound 0.05 µM): 0.881
- relative viability (NCI-H2085; first compound 0.1581 µM): 0.957
- relative viability (NCI-H2085; first compound 0.5 µM): 0.925
- relative viability (NCI-H2126; first compound 0.005 µM): 0.7
- relative viability (NCI-H2126; first compound 0.01581 µM): 0.764
- relative viability (NCI-H2126; first compound 0.05 µM): 0.757
- relative viability (NCI-H2126; first compound 0.1581 µM): 0.727
- relative viability (NCI-H2126; first compound 0.5 µM): 0.771
- relative viability (NCI-H23; first compound 0.005 µM): 0.649
- relative viability (NCI-H23; first compound 0.01581 µM): 0.679
- relative viability (NCI-H23; first compound 0.05 µM): 0.676
- relative viability (NCI-H23; first compound 0.1581 µM): 0.633
- relative viability (NCI-H23; first compound 0.5 µM): 0.598
- relative viability (NCI-H2405; first compound 0.005 µM): 0.762
- relative viability (NCI-H2405; first compound 0.01581 µM): 0.896
- relative viability (NCI-H2405; first compound 0.05 µM): 0.954
- relative viability (NCI-H2405; first compound 0.1581 µM): 0.83
- relative viability (NCI-H2405; first compound 0.5 µM): 0.834
- relative viability (NCI-H3122; first compound 0.005 µM): 0.686
- relative viability (NCI-H3122; first compound 0.01581 µM): 0.8
- relative viability (NCI-H3122; first compound 0.05 µM): 0.726
- relative viability (NCI-H3122; first compound 0.1581 µM): 0.901
- relative viability (NCI-H3122; first compound 0.5 µM): 0.766
- relative viability (NCI-H322M; first compound 0.005 µM): 0.644
- relative viability (NCI-H322M; first compound 0.01581 µM): 0.772
- relative viability (NCI-H322M; first compound 0.05 µM): 0.931
- relative viability (NCI-H322M; first compound 0.1581 µM): 0.791
- relative viability (NCI-H322M; first compound 0.5 µM): 0.591
- relative viability (RERF-LC-KJ; first compound 0.005 µM): 0.794
- relative viability (RERF-LC-KJ; first compound 0.01581 µM): 0.839
- relative viability (RERF-LC-KJ; first compound 0.05 µM): 0.765
- relative viability (RERF-LC-KJ; first compound 0.1581 µM): 0.75
- relative viability (RERF-LC-KJ; first compound 0.5 µM): 0.793
- relative viability (SK-LU-1; first compound 0.005 µM): 0.979
- relative viability (SK-LU-1; first compound 0.01581 µM): 1.12
- relative viability (SK-LU-1; first compound 0.05 µM): 1.23
- relative viability (SK-LU-1; first compound 0.1581 µM): 0.906
- relative viability (SK-LU-1; first compound 0.5 µM): 0.867
- relative viability (SW 1573; first compound 0.005 µM): 0.635
- relative viability (SW 1573; first compound 0.01581 µM): 0.836
- relative viability (SW 1573; first compound 0.05 µM): 0.917
- relative viability (SW 1573; first compound 0.1581 µM): 0.796
- relative viability (SW 1573; first compound 0.5 µM): 0.718
